Test results: patent publication US11014952B2, “Stable hydrolysis-resistant synthetic polyribosylribitolphosphate derivatives as vaccines against Haemophilus influenzae type b” (MAX-PLANCK-GESELLSCHAFT ZUR FÖRDERUNG DER WISSENSCHAFTEN …, priority 2016, dated 2021)

How the values were obtained:
[1] = test system: antibodies raised by immunization with compound 94; test: Glycan array: binding of printed saccharides to antibodies raised by immunization with compound 94; design: species or system rabbit; conditions: sera of rabbits immunized with conjugate 94 with and without Alhydrogel (FIG. 17C, D)
Experimental: Four groups with four rabbits per each group were immunized in a prime-boost regime with unadjuvanted conjugate 94 containing 5 μg saccharide 29 or conjugate 94 (containing 5 μg Hib saccharide 29) adjuvanted with Alhydrogel. The negative control group received PBS/Alhydrogel only. The positive control group received the approved vaccine ActHIB® (5 μg PRP, corresponding to half the human dose), a conjugate of native PRP to tetanus toxoid (TT). Preimmune serum and antiserum of bleeding day 21 (following two immunizations) were taken and analyzed on a glycan array. The ActHIB-specific serum was obtained after three administrations in contrast to two immunisations of the HIB analogues of the present invention.
(§1) Saccharides in PBS were printed on N-Hydroxy succinimide activated glass slides (CodeLink slides, Surmodics) using an S3 microarray spotter (Scienion). Slides were incubated overnight in a humidity saturated chamber, quenched for 2 h with 100 mM ethanolamine, 50 mM sodium phosphate, pH 7.5, washed with water and dried.
(§2) For incubation, slides were blocked for 1 h with 3% (w/v) BSA-PBS, washed with PBS and water, and dried by centrifugation. A 64 well incubation grid was attached. Sera were diluted in 3% BSA-PBS, 0.1% (v/v) Tween-20, incubated at 37° C. for 15 min, and centrifuged for 2 min at 3220 rpm. Serum dilutions were applied to the slide and incubated for 1 h at room temperature. Wells were washed three times with PBS+0.1% Tween-20 (PBS-T). Secondary antibodies (anti-rabbit IgG FITC, anti-rabbit IgM AlexaFluor 647, anti-human IgG-Fc AlexaFluor 488 and IgM AlexaFluor 594) were incubated on the slides for 30 min at r.t. Wells were washed twice with PBS-T, the incubation grid was removed, and the slide washed with PBS and water. After drying by centrifugation, the slide was scanned using a GenePix 4300A (Molecular Devices) microarray reader.
The primary immune response was assessed by glycan array screening of serum samples retrieved at day 0, day 21 and day 35. 2′-Methoxyribosylribitolphosphate dimer 19, 2′-methoxyribosylribitolphosphate dimer 24, 2′-Methoxyribosylribitolphosphate tetramer 29, 2′-deoxyribosylribitolphosphate tetramer 53 and 2′-dimethyl-aminocarbonylribosylribitolphosphate 62 as well as natural Hib PRP were printed on NHS ester-activated microarray slides. After immunization with conjugate 94 adjuvanted with Alhydrogel and without adjuvant, antibodies of the IgG and IgM subtypes against the Hib PRP derivatives 19, 24, 29, 53 and 62 as well as against the natural Hib PRP polysaccharide in all immunized rabbits were detected.

[2] = Stability in basic medium (0.1 M NaOH); assay type: physicochemical; conditions: for cleaved completely after: aqueous basic conditions as applied in Example H-1 (0.1 M NaOH)
Experimental: Stability study of the inventive saccharides is critical for the development of stable liquid Hib glycoconjugate vaccines. As a control we examined first the stability and cleavage of Hib polyribosylribitolphosphate capsular polysaccharide (CPS). Accordingly, Hib CPS was fragmented using standard procedures as described in Vaccine, 2000, 18, 1982-1993: 1 mg Hib CPS in 0.43 mL of 0.1 M NaOH, 20 h. Fragments obtained after purification (filtered through 30 kDa Amicon filters followed by desalting) were analyzed by ^1H NMR, HPLC and HRMS.
The stability of dimer 16 was further investigated under aqueous basic conditions as applied in Example H-1. From the HPLC chromatogram in FIG. 13D it was concluded that dimer 16 got cleaved completely after 4 days, while the natural Hib CPS got already cleaved completely within 20 hours.
The stability of tetramer 29 was further investigated under aqueous basic conditions as applied in Example H-1. From the HPLC chromatogram in FIG. 13A it was concluded that tetramer 29 got cleaved completely after 4 days, while the natural Hib CPS got already cleaved completely within 20 hours.

[3] = test system: anti-Hib antibodies in rabbit typing serum; test: Glycan array analysis with rabbit typing serum; assay type: binding; conditions: for inhibition of binding by natural Hib PRP: Hib PRP inhibitor present (FIG. 17B); for binding of anti-Hib antibodies to printed saccharide: no inhibitor (FIG. 17B)
Experimental: as §1, §2

[4] = Stability in presence of aluminum hydroxide (Alhydrogel), aluminum phosphate, phosphate buffer or water, HPLC; assay type: physicochemical; conditions: for cleavage to smallest fragments observed after: Alhydrogel
Experimental: Having established the stability data of the control Hib CPS, then the stability of Hib CPS in aluminum hydroxide was investigated, where it is known to be unstable in a vaccine formulation {0.5 mg Hib CPS, 3 mL Alhydrogel® (Brentag) and 22 mL milli-Q water} at various temperatures {37° C. (A1) and rt (A3)}. At 37° C. cleavage to smallest fragments were observed after 2 days and at rt this pattern was observed after day 7 (FIG. 6). From this experiment it was confirmed that, Hib CPS decomposes to 2 and 3-O phosphate fragments in 2 to 7 days depending on temperature in Aluminum hydroxide the most common adjuvant used in commercial vaccines.
Stability studies of synthesized 2′-methoxyribosylribitolphosphate dimer 16 were conducted in presence of various adjuvants. As a first step stability of 16 was studied using Al(OH)3, AlPO4 and water at various temperatures {37° C. (A1), 2-8° C. (A2), rt (A3) and 70° C. (A4)}.
The amount of Al(OH)3 and AlPO4 used for this study was similar to the amount present in commercial Hib vaccines. Compounds 16 and 8 were used as reference since decomposition of dimer 16 should lead to monomer 8. Every 24 h 40 μL of solution was aliquoted from each vial and centrifuged for 4 min at 5000 rpm. Supernatant (25 μL) was taken for HPLC analysis. […] From this study it was clear that 2′-methoxyribosylribitol dimer 16 was stable at 37° C. (A1), 2-8° C. (A2), r.t. (A3) and at 70° C.
Stability studies of synthesized 2′-methoxyribosylribitolphosphate tetramer bearing a linker 29 were conducted in presence of various adjuvants. As a first step stability of 29 was studied using Al(OH)3, phosphate buffer (PBS) and water at various temperatures {2-8° C. (A2), and r.t. (A3)}.
The amount of Al(OH)3 used for this study was similar to the amount present in commercial Hib vaccines. Compounds 29, 16 and 8 were used as reference since decomposition of tetramer 29 should lead to dimer 16 and monomer 8. Every 24 h 40 μL of solution was aliquoted from each vial and centrifuged for 4 min at 5000 rpm. Supernatant (25 μL) was taken for HPLC analysis. […] From this study it was clear that 2′-methoxyribosylribitolphosphate tetramer 29 is stable in presence of Al(OH)3, in phosphate buffer (PBS) and in water at 2-8° C. (A2) and r.t. (A3).

[5] = test system: anti-Hib antibodies present in human reference serum; test: Glycan array analysis with Hib human reference serum; assay type: binding; conditions: for inhibition of binding by natural Hib PRP: Hib PRP inhibitor present (FIG. 17A); for binding of anti-Hib antibodies to printed saccharide: no inhibitor (FIG. 17A)
Experimental: as §1, §2

Row | Compound | antibodies of the IgG and IgM subtypes against the saccharide after immunization with conjugate 94 [1] | cleaved completely after ([2]; HPLC) | inhibition of binding by natural Hib PRP [3] | binding of anti-Hib antibodies to printed saccharide [3] | inhibition of binding by natural Hib PRP [5] | binding of anti-Hib antibodies to printed saccharide [5] | further results
1 | 2′-Methoxyribosylribitolphosphate tetramer [Compound 29] | detected | 4 days | inhibits the binding | bind | inhibits the binding | bind | stability ([4]; Al(OH)3, phosphate buffer (PBS) and water, 2-8° C. (A2)): stable; decomposition after 7 days (HPLC) ([4]; Al(OH)3, phosphate buffer (PBS) and water, 2-8° C. and r.t.): no decomposition was observed; stability ([4]; Al(OH)3, phosphate buffer (PBS) and water, r.t. (A3)): stable
2 | 2′-deoxyribosylribitolphosphate tetramer [Compound 53] | detected |  | not | bind | not | bind | 
3 | COC1C(OP(=O)(O)OCCCCCN)[C@@H](CO)O[C@H]1OCC(O)C(O)C(O)COP(=O)(OCc1ccccc1)OC1C(OC)[C@H](OCC(O)C(O)C(O)CO)O[C@@H]1CO (stereo partly drawn) [Compound 24, 2′-methoxyribosylribitolphosphate dimer] | detected |  | inhibits the binding | bind | inhibits the binding | bind | 
4 | Hib polyribosylribitolphosphate capsular polysaccharide [Hib CPS, reference compound] | detected |  |  |  |  |  | cleavage products in basic medium ([2]; 0.1 M NaOH, 20 h, 1H NMR, HPLC, HRMS): cleaved to its smallest 2 and 3-0 phosphate fragments; time to complete hydrolysis / cleavage under basic conditions ([2]; 0.1 M sodium hydroxide solution): ≤ 20 h; stability in basic aqueous media or in the presence of aluminum salts ([2]; basic aqueous media, suspensions with aluminum phosphate or aluminum hydroxide): hydrolyzes within one day; cleavage to smallest fragments observed after ([4]; 37° C.): 2 days; cleavage to smallest fragments observed after ([4]; rt): 7 days
5 | COC1C(O)[C@@H](CO)O[C@H]1OCC(O)C(O)C(O)COP(=O)(O)OC1C(OC)[C@H](OCC(O)C(O)C(O)CO)O[C@@H]1CO (stereo partly drawn) [Compound 16, 2′-methoxyribosylribitolphosphate dimer] |  | 4 days |  |  |  |  | stability ([4]; Al(OH)3, AlPO4 and water, 2-8° C. (A2), 7 days): stable; stability ([4]; Al(OH)3, AlPO4 and water, 37° C. (A1), 7 days): stable; decomposition after 7 days (HPLC) ([4]; Al(OH)3, AlPO4 and water, 37° C., 2-8° C., rt and 70° C.): no decomposition was observed; stability ([4]; Al(OH)3, AlPO4 and water, 70° C., 7 days): stable; stability ([4]; Al(OH)3, AlPO4 and water, r.t. (A3), 7 days): stable
6 | COC1C(O)[C@@H](CO)O[C@H]1OCC(O)C(O)C(O)COP(=O)(O)OC1C(OC)[C@H](OCC(O)C(O)C(O)COP(=O)(O)OCCCCCN)O[C@@H]1CO (stereo partly drawn) [Compound 19, 2′-Methoxyribosylribitolphosphate dimer] | detected |  | inhibits the binding | bind | inhibits the binding | bind | 
